According to US20220274947A1, “NOVEL HETEROARYL-TRIAZOLE COMPOUNDS AS PESTICIDES” (Bayer Aktiengesellschaft, priority 2019, published 2022):

Tests used:
Assay type in all cases: in vivo
[1] = test system: Rhipicephalus microplus; assay: Rhipicephalus (Boophilus) microplus in-vitro contact test, larval cattle tick, strain Parkhurst (BOOPMI Cont); conditions: application rate 5 μg/cm^2 (=500 g/ha), tick larvae, after 48 hours, read-out: activity (efficacy: 100% means all larvae are dead or moribund)
Method in brief: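 After 48 h at 27° C. and 85% humidity, percent dead or moribund larvae was scored from negative geotactic behaviour. Larvae (20-50, Parkhurst strain, synthetic pyrethroid-resistant) were exposed in tubes coated with compound from acetone, 900 ppm corresponding to 5 μg/cm^2.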

[2] = test system: Rhipicephalus microplus; assay: Rhipicephalus (Boophilus) microplus injection test (BOOPMI Inj); conditions: 168 h, injection into adult engorged female ticks, egg deposition after 7 days, read-out: activity (efficacy: 100% means all eggs are infertile); for pest or weed control at 0.004 mg: application rate 4 μg/tick; for pest or weed control at 0.02 mg: application rate 20 μg/tick
Method in brief: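 Compound in DMSO, 1 μL, injected abdominally into five adult engorged females, which were then held in a climate chamber. Read-out is egg fertility, scored from deposition at 7 days, with unclear eggs followed to hatching (~42 days); 0% means all eggs fertile, 100% all infertile.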

[3] = test system: Ctenocephalides felis; assay: Ctenocephalides felis oral test (CTECFE Oral); conditions: 48 h, read-out: activity (mortality)
Method in brief: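 Percent mortality was recorded 2 days after roughly 20 adult Ctenocephalides felis fed on treated cattle blood. The blood was warmed to 37 °C beneath a parafilm membrane, with the fleas kept at room temperature. Compound was dissolved in DMSO and diluted into the blood to test concentration.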

[4] = test system: Diabrotica balteata; assay: Diabrotica balteata spray test; conditions: 168 h, wheat seeds, larvae, after 7 days, read-out: activity (efficacy: 100% means all seedlings have grown up like in the untreated, uninfected control); for pest or weed control at 32 µg/disc, 100 g/ha: application rate 100 g/ha (=32 μg/well); for pest or weed control at 160 µg/disc, 500 g/ha: application rate 500 g/ha (=160 μg/well)
Method in brief: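 Efficacy (%) was scored 7 days after spraying, with 100% meaning growth like the untreated, uninfected control and 0% meaning no seedling grew. Spray solutions of compound in acetone/DMF with emulsifier-containing water went onto 1-day-germinated wheat seeds, and each unit was then infested with 10-20 banded cucumber beetle larvae.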

[5] = test system: Nezara viridula; assay: Nezara viridula spray test; conditions: in Hordeum vulgare, 96 h, barley plants, larvae, after 4 days; for mortality at 100 g/ha: application rate 100 g/ha; for mortality at 500 g/ha: application rate 500 g/ha
Method: Nezara viridula—Spray Test Solvent: 78.0 parts by weight of acetone • • 1.5 parts by weight of dimethylformamide Emulsifier: alkylarylpolyglycol ether
(§1) To produce a suitable preparation of active compound, 1 part by weight of active compound is mixed with the stated amount of solvent, and the concentrate is diluted with water, containing an emulsifier concentration of 1000 ppm, to the desired concentration. Further test concentrations are prepared by dilution with emulsifier containing water.
Barley plants (Hordeum vulgare) infested with larvae of the southern green stink bug (Nezara viridula) are sprayed with a test solution containing the desired concentration of the active ingredient.
After 4 days mortality in % is determined. 100% means all the stink bugs have been killed; 0% means none of the stink bugs have been killed.

[6] = test system: Rhipicephalus sanguineus; assay: Rhipicephalus sanguineus in-vitro contact test, adult brown dog ticks (RHIPSA Cont); conditions: 48 h, after 48 hours, read-out: activity (efficacy: 100% means all ticks are dead or moribund); for pest or weed control at 1 µg/cm2, 100 g/ha: application rate 1 μg/cm^2 (=100 g/ha); for pest or weed control at 5 µg/cm2, 500 g/ha: application rate 5 μg/cm^2 (=500 g/ha)
Method in brief: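 Mortality of adult R. sanguineus was judged 48 h after contact with acetone-applied residues on glass tube walls. Ticks that stayed immotile or moved without coordination when heated to 45–50 °C (max 5 min) counted as dead or moribund.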

[7] = test system: Spodoptera frugiperda; assay: Spodoptera frugiperda spray test; conditions: in Zea mays, 168 h, read-out: activity (mortality)
Method in brief: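 Percent kill of fall armyworm caterpillars was assessed 7 days after infesting dried, treated maize leaf sections. Treatment was a spray of compound in acetone/dimethylformamide, diluted with water containing emulsifier at 1000 ppm.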

[8] = test system: Musca domestica strain WHO—N; assay: Musca domestica test (MUSCDO surface treatment & contact assay); conditions: exposure 30 minutes, 24 hours after contact, read-out: efficacy (mortality); for mortality at 20 mg/m2: surface concentration 20 mg/m^2, glazed tile; for mortality at 4 mg/m2: surface concentration 4 mg/m^2, glazed tile
Method in brief: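 Compound dissolved in acetone (2 mg/ml) with 2000 ppm rapeseed oil methyl ester and pipetted onto glazed tile; after acetone evaporation, adult flies exposed to dried surface for 30 minutes. Mortality (%) scored 24 hours after contact.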

[9] = test system: Myzus persicae; assay: Myzus persicae oral test; conditions: 120 h, read-out: activity (mortality)
Method in brief: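 Percent mortality was recorded at day 5, where 0% means no aphids killed. Compound prepared from an acetone concentrate diluted in water and combined with IPL41 medium containing sugar was offered to mixed-stage green peach aphids, which sucked it through a parafilm seal.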

[10] = test system: Aedes aegypti strain MONHEIM; assay: Aedes aegypti test (AEDSAE surface treatment & contact assay); conditions: surface concentration 20 mg/m^2, glazed tile, exposure 30 minutes, 24 hours after contact, read-out: efficacy (mortality)
Method in brief: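 Compound dissolved in acetone (2 mg/ml) with 2000 ppm rapeseed oil methyl ester, pipetted onto glazed tile and dried. Adult mosquitoes exposed on the surface for 30 min; percent mortality scored 24 h after contact.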

[11] = test system: Myzus persicae; assay: Myzus persicae spray test; conditions: in Brassica rapa, foliar, 120 h; for mortality at 100 g/ha: read-out: activity (mortality), application rate 100 g/ha, spray, Chinese cabbage leaf disks, after 5 days
Method: as §1, with “Myzus persicae—Spray Test Solvent: 78.0 parts by weight acetone • 1.5 parts by weight dimethylformamide Emulsifier: alkylarylpolyglycol ether To” for “To”, “solvents” for “solvent,”, “and” for “and the concentrate”
Chinese cabbage (Brassica pekinensis) leaf disks infected with all instars of the green peach aphid (Myzus persicae), are sprayed with a preparation of the active ingredient of the desired concentration.
After 5 days mortality in % is determined. 100% means all aphids have been killed and 0% means none of the aphids have been killed.

[12] = test system: Ctenocephalides felis; assay: Ctenocephalides felis in-vitro contact test, adult cat flea (CTECFE Cont); conditions: application rate 5 μg/cm^2 (=500 g/ha), adult cat fleas, after 48 hours, read-out: activity (efficacy: 100% means all fleas are dead or moribund)
Method: Ctenocephalides felis—In-Vitro Contact Tests Adult Cat Flea (CTECFE Cont)
9 mg compound is solved in 1 mL acetone and diluted with acetone to the desired concentration. 250 μL of the test solution is filled in 25 mL glass test tubes and homogeneously distributed on the inner walls by rotation and tilting on a shaking device (2 h at 30 rpm). With a compound concentration of 900 ppm, an inner surface of 44.7 cm^2 and a homogeneous distribution, a dose of 5 μg/cm^2 is achieved.
After the solvent has evaporated, each test tube is filled with 5-10 adult cat fleas (Ctenocephalides felis), closed with a perforated lid and incubated in a lying position at room temperature and relative humidity. After 48 hours efficacy is determined. The fleas are patted on the ground of the tubes and are incubated on a heating plate at 45-50° C. for at most 5 minutes. Immotile or uncoordinated moving fleas, which are not able to escape the heat by climbing upwards, are marked as dead or moribund.
An efficacy of 100% means all fleas are dead or moribund; 0% means no fleas are dead or moribund.

SMILES | pest or weed control at 5 µg/cm2 [1] [%] | pest or weed control at 0.004 mg [2] [%] | pest or weed control at 0.02 mg [2] [%] | mortality at 100 ppm [3] [%] | pest or weed control at 32 µg/disc, 100 g/ha [4] [%] | mortality at 100 g/ha [5] [%] | pest or weed control at 1 µg/cm2, 100 g/ha [6] [%] | pest or weed control at 5 µg/cm2, 500 g/ha [6] [%] | mortality at 100 g/ha [7] [%] | mortality at 20 mg/m2 [8] [%] | mortality at 4 ppm [9] [%] | mortality at 20 mg/m2 [10] [%] | mortality at 100 g/ha [11] [%] | mortality at 4 mg/m2 [8] [%] | mortality at 500 g/ha [5] [%] | pest or weed control at 5 µg/cm2 [12] [%] | pest or weed control at 160 µg/disc, 500 g/ha [4] [%] | mortality at 500 g/ha [7] [%] | mortality at 500 g/ha ([11]; read-out: activity (mortality), application rate 500 g/ha, spray, Chinese cabbage leaf disks, after 5 days) [%]
CC(C)c1nc([C@H](C)NC(=O)c2cc(Cl)nc(C(F)(F)F)c2)n(-c2ccc(C#N)cn2)n1 [I-28] | 100 | 100 | 100 | 100 | 100 | 90 | 100 | 100 | 100 | 80 to 100 | 90 | – | – | – | – | – | – | – | –
C[C@H](NC(=O)c1cc(C(F)(F)F)cc(C(F)(F)F)c1)c1nc(C(C)(C)C)nn1-c1ccc(C#N)cn1 [I-37] | 100 | 100 | 100 | – | 100 | 100 | 100 | 100 | 100 | 80 to 100 | – | 80 to 100 | 90 | 80 to 100 | – | – | – | – | –
COc1nc([C@H](C)NC(=O)c2cc(OC(F)F)cc(C(F)F)c2)n(-c2ccc(C#N)cn2)n1 [I-65] | 100 | – | – | – | 100 | – | – | 80 | 100 | – | 100 | – | 90 | – | 100 | – | – | – | –
C[C@H](NC(=O)c1cc(Cl)cc(OC(F)(F)F)c1)c1ncnn1-c1ncc(Br)s1 [II-15, N-{(1S)-1-[1-(5-bromo-1,3-thiazol-2-yl)-1H-1,2,4-triazol-5-yl]ethyl}-3-chloro-5-(trifluoromethoxy)benzamide] | 100 | 100 | 100 | 100 | 100 | – | – | – | – | 80 to 100 | – | – | – | – | 90 | 80 | 100 | 100 | –
C[C@H](NC(=O)c1cc(Cl)cc(OC(F)(F)F)c1)c1ncnn1-c1ncc(I)s1 [II-21] | 100 | 100 | 100 | 100 | 100 | – | – | – | – | 80 to 100 | – | – | – | 80 to 100 | 90 | 80 | 100 | 100 | –
C[C@H](NC(=O)c1cc(C(F)(F)F)cc(C(F)(F)F)c1)c1ncnn1-c1ncc(I)s1 [II-39] | 100 | 100 | 100 | – | 100 | – | 100 | 100 | 100 | 80 to 100 | – | 80 to 100 | – | 80 to 100 | 90 | – | 100 | 100 | 100
C[C@H](NC(=O)c1cc(Cl)cc(C(F)(F)F)c1)c1ncnn1-c1ccc(C(=O)N(CC(F)(F)F)C2CC2)cn1 [II-70] | 100 | 100 | 100 | – | 100 | – | 100 | 100 | 100 | – | – | – | – | – | 90 | 100 | 100 | 100 | –
C[C@H](NC(=O)c1cc(Cl)cc(C(F)(F)F)c1)c1ncnn1-c1ccc(C(=O)N(C)CC#N)cn1 [II-72] | 100 | 100 | 100 | – | 100 | – | 100 | 100 | 100 | – | 100 | – | – | – | 100 | 100 | 100 | 100 | –
COCCN(C)C(=O)c1ccc(-n2nc(C)nc2[C@H](C)NC(=O)c2cc(C(F)(F)F)cc(C(F)(F)F)c2)nc1 [II-98] | 100 | 100 | – | 100 | – | – | 100 | 100 | 83 | – | 100 | – | 90 | – | – | – | – | – | –
Cc1nc([C@H](C)NC(=O)c2cc(Br)cc(OC(F)(F)F)c2)n(-c2cc(C#N)ccn2)n1 [II-106] | 100 | 100 | – | 100 | 100 | – | 100 | 100 | 100 | – | 100 | – | 90 | – | – | 90 | – | – | –
